# Where “and” joins values, the source holds several entries; their conditions need not be identical. Equal entries are not always repeated. Structures can show the parent of a compound that is named as a salt. Where two headings read alike, the source gives them in different places.
# Tested on: H9 cells
# Experiment: qHTS for survival of dissociated H9 cells (CellTiter-Glo, 24 hours after seeding)
# Format: cell-based, human
# From the text: FIG. 2 schematically illustrates qHTS procedure.
# All the screed compounds were received pre-plated at the pre-determined concentrations. […] Curve classification is explained in Huang et al. “Chemical genomics profiling of environmental chemical modulation of human nuclear receptors” Environ. Health. Perspect.
# [1] = H9 cell survival normalized to 10 μM Y-27632 (taken to be 100%)
# [2] = H9 cell survival, normalized to 10 μM Y-27632
# [3] = Homo sapiens, H9, 24 h, H9 cell survival normalized to 10 μM Y-27632 (taken to be 100%); read-out: Max (maximum activity value from all tested concentrations)
# [4] = Homo sapiens, H9, 24 h, H9 cell survival, CellTiter-Glo 24 hours after seeding; read-out: AC50 (concentration at 50% efficacy)
# [5] = Homo sapiens, H9, 24 h, H9 cell survival, normalized to 10 μM Y-27632; read-out: Efficacy (activity range between predicted activities at zero and infinite doses, Hill equation)
# [6] = H9 cell survival, CellTiter-Glo 24 hours after seeding; read-out: AC50 (concentration at 50% efficacy)
# [7] = Homo sapiens, H9, 24 h; read-out: Efficacy (activity range between predicted activities at zero and infinite doses, Hill equation)
# [8] = Homo sapiens, H9, 24 h; read-out: Max (maximum activity value from all tested concentrations)
# [9] = Homo sapiens; H9 cell survival, CellTiter-Glo 24 hours after seeding; read-out: AC50 (concentration at 50% efficacy)
SMILES,Max (maximum activity value from all tested concentrations) [1],"Efficacy (activity range between predicted activities at zero and infinite doses, Hill equation) [2]",Emax [3],Emax [5],AC50 [6],other results
"CC(C)CCC(=O)CC1c2ccccc2C(=O)N1c1ccc2ccc(Cl)nc2n1 (single isomer, unassigned; (+)) [(+)-Pagoclone]",22.94%,0,,,,
"Oc1cccc2c(O)nccc12 [1,5-Isoquinolinediol]",,,41%,42.2%,,AC50 [4]: 18.4 µM
CC1CN(S(=O)(=O)c2cccc3cnccc23)CCN1.Cl.Cl (stereo not drawn) [1-05-IsoquinolinylstilfonyI)-3-methylpiperazine dihydroehloride],100.6%,102,,,20.6 µM,
COc1cccc(CNC(=O)Nc2nc(-c3ccncc3)cs2)c1 [1-(3-methoxybenzyl)-3-(4-(pyridin-4-yl)thiazol-2-yl)urea],,,124%,121%,,AC50 [4]: 0.147 µM
CC1CNCCN1S(=O)(=O)c1cccc2cnccc12.Cl.Cl (stereo not drawn) [1-(5-Isoquinolinylsulfonyl)-2-methylpipenvine dihydrochloride],85.52%,92.2,,,4.61 µM,
C[C@]12C[C@@H](O)[C@H]3[C@@H](CC[C@@H]4C[C@@H](O)CC[C@@]43CO)[C@@]1(O)CC[C@@H]2C1=CC(=O)OC1 [19-hydroxysarmentogenin],21.79%,−11.5,,,0.004 µM,
Cc1n[nH]c2ccc(-c3cncc(OC[C@@H](N)Cc4c[nH]c5ccccc45)c3)cc12 [A-443654],,,39.8%,0%,,
Cc1cccc(NC(=O)c2ccc(C(F)(F)F)cc2C(=O)O)n1 [AF38469],22.96%,29.6,,,5.21 µM,
CCn1c(-c2nonc2N)nc2c(C#CCO)ncc(OCCCN)c21 [AKT Kinase Inhibitor],46.89%,0,,,,
O=C1NC(=O)C(=O)C(=O)N1 [ALLOXAN],,,,,,Emax [7]: 27.2%; Emax [8]: 22.4%; AC50 [9]: 5.21 µM
CNc1nccc(-c2cccnc2Oc2cc(C(=O)Nc3cccc(C(F)(F)F)c3)ccc2C)n1 [AMG-Tie2-1],57.84%,54.5,,,18.7 µM,
O=C(Nc1ccc(-c2ccncc2)cc1)N[C@H](CO)c1ccccc1 [AS 1892802],117.5%,115,,,1.31 µM,
Clc1ccc(C2(c3ccc(-c4cn[nH]c4)cc3)CCNCC2)cc1 [AT-7867],119.5% and 118.4%,92.2 and 104,,,,
NC[C@@](O)(c1ccc(Cl)cc1)c1ccc(-c2cn[nH]c2)cc1 [AT-13148],,,89.8%,64.5%,,AC50 [4]: 0.104 µM
CCCCOc1c(C(=O)c2c(F)cc(C)cc2F)c[nH]c2nncc1-2 [BMS-265246],,,42.8%,33.9%,,AC50 [4]: 1.18 µM
Cl.O=c1[nH]c([C@@H]2CCCN2)nc2c1oc1ccc(Cl)cc12 [BMS-863233 (XL-413)],22.03%,28.3,,,26.1 µM,
CCS(=O)(=O)N1CC(CC#N)(n2cc(-c3ncnc4[nH]ccc34)cn2)C1 [Baricitinib],,,115%,,,
CCCC1(C)C(C#N)(C#N)C1(C#N)C#N [CCG-2046],21.78%,23.7,,,20.6 µM,
NC1(Cc2ccc(Cl)cc2)CCN(c2ncnc3[nH]ccc23)CC1 [CCT-128930],106.8%,133,,,11.8 µM,
COc1c(Nc2ncc(Cl)c(N[C@H]3[C@@H](C(N)=O)[C@@H]4C=C[C@H]3C4)n2)ccc2c1CC[C@@H](N1CCOCC1)CC2 [CEP-28122],23.83%,23.5,,,0.585 µM,
CN1CCN(c2cccc(Nc3nc4c(-c5ccc(S(C)(=O)=O)cc5)cccn4n3)c2)CC1 [CEP-33779],27.79%,25.5,,,5.9 µM,
O=c1[nH]c2ccc(Cl)cc2c(N[C@@H]2CN3CCC2CC3)c1-c1nc2ccccc2[nH]1 [CHIR-124],21.27%,12.4,,,0.235 µM,

SMILES,Max (maximum activity value from all tested concentrations) [1],"Efficacy (activity range between predicted activities at zero and infinite doses, Hill equation) [2]",Emax [3],Emax [5],AC50 [6],other results
Cc1[nH]c2ccccc2c1CCNC(=O)c1cccs1 [CK-636],47.74%,0,,,,
COCCOc1ccc2c(c1)ncn2-c1ccc2cccc(N3CCC(N)CC3)c2n1 [CP-673451],,,35.6%,0%,,
COCC(=O)NC/C=C/c1ccc2ncnc(Nc3ccc(Oc4ccc(C)nc4)c(C)c3)c2c1 [CP-724714],,,21.2%,23.5%,,AC50 [4]: 20.8 µM
CCS(=O)(=O)N1CCN(c2ccc(Nc3ncc(C(N)=O)c(NC4CC4)n3)cc2)CC1 [Cerdulatinib],,,39%,33.6%,,AC50 [4]: 2.93 µM
C=C1[C@@H](C)[C@H]2[C@H](Cc3ccccc3)NC(=O)[C@]23OC(=O)/C=C/[C@H](O)CCC[C@@H](C)C/C=C/[C@H]3[C@@H]1O [Cytochalasin B],14.14%,43.2,,,7.5 µM,
Cc1c(O)c(O)cc2c1CC=C1[C@@]2(C)CC[C@@]2(C)[C@@H]3C[C@](C)(C(=O)O)CC[C@]3(C)CC[C@]12C [DIHYDROCELASTROL],,,,,,Emax [7]: 26.1%; Emax [8]: 21.2%; AC50 [9]: 14.7 µM
CC(C)(C)c1nc(-c2cccc(NS(=O)(=O)c3c(F)cccc3F)c2F)c(-c2ccnc(N)n2)s1 [Dabrafenib],,,22%,21.7%,,AC50 [4]: 14.8 µM
CC[C@@](C)(Nc1ccnc(-c2c[nH]c3ncccc23)n1)C(=O)NCC(F)(F)F [Decernotinib],,,34%,30.1%,,AC50 [4]: 2.93 µM
Cn1c(=O)c2c(ncn2CC2OCCO2)n(C)c1=O [Doxofylline],,,,,,"AC50 [4]: 0.521 µM; Emax (Homo sapiens, H9, 24 h, read-out: Efficacy (activity range between predicted activities at zero and infinite doses, Hill equation)): 12.1%; Emax (Homo sapiens, H9, 24 h, read-out: Max (maximum activity value from all tested concentrations)): 22.5%"
CC1=NN(c2ccccc2)C(=O)C1 [Edaravone],,,21%,11%,,AC50 [4]: 0.521 µM
O=S(=O)(c1cccc2cnccc12)N1CCCNCC1 [Fasudil hydrochloride],,,107%,127%,,AC50 [4]: 33.2 µM
CNCCC(Oc1ccc(C(F)(F)F)cc1)c1ccccc1 (stereo not drawn) [Fluoxetine hydrochloride],,,70.4%,0%,,
CC1(C)[C@@H](O[C@H]2O[C@H](C(=O)O)[C@@H](O)[C@H](O)[C@H]2O[C@@H]2O[C@H](C(=O)O)[C@@H](O)[C@H](O)[C@H]2O)CC[C@]2(C)[C@H]3C(=O)C=C4[C@@H]5C[C@@](C)(C(=O)O)CC[C@]5(C)CC[C@@]4(C)[C@]3(C)CC[C@@H]12.N [GLYCYRRHIZIC ACID. AMMONIUM SALT],23.95%,26,,,14.7 µM,
CC1=C(C(=O)Nc2cc3cn[nH]c3cc2F)C(c2ccc(Cl)cc2F)N=C(c2ccnc(Cl)c2)N1 (stereo not drawn) [GSK-25],121.1% and 113.3%,118 and 113,,,,
CCn1c(-c2nonc2N)nc2cnc(Oc3cccc(NC(=O)c4ccc(OCCN5CCOCC5)cc4)c3)cc21 [GSK-269962A],133.3%,106,,,11.8 µM,
CC1=C(C(=O)Nc2cc3cn[nH]c3cc2F)C(c2ccc(C(F)(F)F)cc2)CC(=O)N1 (stereo not drawn) [GSK-429286A],129.3%,126,,,3.32 µM,
Cc1cncc2cccc(S(=O)(=O)N3CCCN(C(=O)CN)C[C@@H]3C)c12 [Glycyl-H-1152],,,121%,,,
Cn1c2ccccc2c2c3c(c4c5ccccc5n(CCC#N)c4c21)CNC3=O [Go-6976],,,49.1%,37.3%,,AC50 [4]: 4.69 µM
Cl.Cl.O=S(=O)(NCCNC/C=C/c1ccc(Br)cc1)c1cccc2cnccc12 [H-89],25.95%,16.9,,,1.87 µM,
O=S(=O)(c1cccc2cnccc12)N1CCNCC1 [HA-100],88.17%,88.9,,,7.31 µM,
Cl.NC(N)=NCCNS(=O)(=O)c1cccc2cnccc12 [HA-1004 hydrochloride],50.05%,50,,,5.17 µM,
